The results in this text go back to patent EP3300730A1, “THE MEDICAL USE OF 5,7-DIHYDROXY-3-(4-HYDROXYPHENYL)-4H-1-BENZOPIRAN-4-ONE IN THE THERAPY OF HUNTINGTON DISEASE AND PHARMACEUTICALLY ACCEPTABLE FORM OF THE DRUG” (Uniwersytet Gdanski, priority 2016, dated 2018).

Experiment [1] relates to huntingtin aggregates. Put plainly: Fluorescence microscopy of huntingtin aggregates in transfected cells. The following applies: HEK293 transfected with pEGFP-Q74; genistein 30, 60 and 100 µM; 48 h; vs DMSO control (Fig. 1). The class given is cell-based, human. As for the experimental part:
(§1) • Fig. 1. Number and average size of huntingtin aggregates in human embryonic kidney cells transfected with plasmid pEGFP-Q74 (bearing the 1st exon of the HTT gene with 74 CAG repeats), treated with genistein (30, 60 and 100 µM) or DMSO (control cells), in a volume equal to that of genistein, for 48 h. Error bars indicate standard deviation. Statistical analysis was performed with the t-Student test. The differences were considered significant at p<0.05. • Fig. 2. Relative level of mutated huntingtin in human embryonic kidney cells transfected with plasmid pEGFP-Q74 (bearing the 1st exon of the HTT gene with 74 CAG repeats), treated with genistein (30, 60 and 100 µM) or DMSO (control cells), in a volume equal to that of genistein, for 96 h. Actin was used as an internal control. • Fig. 3. […] Intensity of bands was estimated using the Quantity One software. • Fig. 5. Number (calculated per one cell) and volume of acidic organelles in human embryonic kidney cells transfected with plasmid pEGFP-Q74 (bearing the 1st exon of the HTT gene with 74 CAG repeats), treated with genistein (30, 60 and 100 µM) or DMSO (control cells), in a volume equal to that of genistein, for 96 h. […] The co-localization Pearson factor was calculated by using the ImageJ software. […]

Experiment [2] relates to mutated huntingtin. The experiment in a line: Western blotting of the mutated huntingtin level. It is filed as cell-based, human. The note with it: HEK293 transfected with pEGFP-Q74; genistein 30, 60 and 100 µM; 96 h; actin internal control (Fig. 2). As for the experimental part: as §1
(In general: Immunoblotting shows a protein as a band on a membrane.)

In experiment [3] the test system is human embryonic kidney cells (HEK293) transfected with plasmid pEGFP-Q74. Put plainly: MTT viability test of cells transfected with pEGFP-Q74. The following applies: genistein 30, 60 and 100 µM, 48 h, MTT test (Fig. 3). The class given is cell-based. On the procedure:
as §1
Background: Tetrazolium assays rely on reduction of a dye to a coloured formazan, in cell work by metabolically active cells.

Experiment [4] has as its system LC3-II protein. Put plainly: Immunodetection (Western blotting) of the autophagy marker LC3-II. It is filed as cell-based, human. The note with it: 96 h. On the procedure:
as §1

Experiment [5] relates to acidic organelles. Put plainly: LysoTracker Red staining of acidic organelles (lysosomes), ImageJ analysis. The class given is cell-based, human. The note with it: 96 h, HEK293 transfected with pEGFP-Q74, LysoTracker Red (Fig. 5). The text has this:
• Fig. 1. […] Error bars indicate standard deviation. […] Error bars indicate standard deviation. […] Error bars indicate standard deviation.

In experiment [6] the test system is aggregates of mutated huntingtin with lysosomes. The experiment in a line: Co-localization of mutated huntingtin aggregates with lysosomes (fluorescence microscopy, Pearson coefficient). The class given is cell-based, human. The following applies: 100 µM genistein; 96 h; HEK293 transfected with pEGFP-Q74; vs DMSO control (Fig. 6). As for the experimental part:
as §1, with “2.” for “2. Relative level of mutated huntingtin in human embryonic kidney cells transfected with plasmid pEGFP-Q74 (bearing the 1st exon of the HTT gene with 74 CAG repeats), treated with genistein (30, 60 and 100 µM) or DMSO (control cells), in a volume equal to that of genistein, for 96 h. Actin was used as an internal control. • Fig. 3.”
In order to test whether mutant huntingtin is transported into lysosomes for degradation, co-localization of aggregates of mutated huntingtin with lysosomes was assessed using a fluorescent microscope (Fig. 6). […]

Experiment [7] relates to mutated huntingtin. The experiment in a line: Western blotting of mutated huntingtin with lysosomal function inhibited by chloroquine. It is filed as cell-based, human. The following applies: in the presence of 10 µM chloroquine; genistein 30, 60 and 100 µM; 96 h; HEK293 transfected with pEGFP-Q74 (Fig. 7). On the procedure:
as §1

In the case of `O=c1c(-c2ccc(O)cc2)coc2cc(O)cc(O)c12` [genistein, 5,7-dihydroxy-3-(4-hydroxyphenyl)-4H-1-benzopiran-4-one], in experiment [1], the “number of mutant huntingtin aggregates in cells” value was “decrease in both size and number”; the “size of mutant huntingtin aggregates in cells” value was “decrease in both size and number”. Besides, in experiment [2], the “level of mutant huntingtin in cells” value is listed as “significantly reduces”. In addition, in experiment [3], the viability of cells result is “increase in viability”. The LC3-II protein amount entry in experiment [4] (HEK293 transfected with pEGFP-Q74, genistein 30, 60 and 100 µM, vs DMSO control (Fig. 4)) is recorded as “genistein-concentration-dependent increase”. The fold induction at 100 µM in experiment [4] (Homo sapiens, highest genistein concentration (100 µM), HEK293 transfected with pEGFP-Q74 (Fig. 4), read-out: LC3-II protein level relative to control experiment) is around 4. In experiment [5] (30 µM genistein), the “number of acid organelles” value is “increase is visible” and the “volume of acid organelles” value is given as “increase in the volume of acid organelles was evident”. In addition, in experiment [5] (100 µM genistein), the “number of acid organelles” value was “difference relative to the control is significant”. Besides, the “co-localization of aggregates of mutated huntingtin with lysosomes” value in experiment [6] is on record as “increased significantly”. For the same compound, the “level of mutated huntingtin” value in experiment [7] is reported as “did not change significantly”.
